From patent US9023762B2, “Plant growth regulator compositions, methods of preparation and use thereof” (Valent BioSciences Corporation, priority 2011, dated 2015)

Legend:
Pansy plants = assay: Pansy shelf life extension study (sprench application); format: in vivo; details: for Days of extended shelf life / S-(+)-Abscisic acid dose (mg) to extend 1 day of shelf life / S-(+)-Abscisic acid dose (mg) to extend 2 days of shelf life: drench and foliar applied; for S-(+)-Abscisic acid dose to extend 1 day shelf life: drench/foliar applied; for S-(+)-Abscisic acid dose (mg) to extend 1 day of shelf life / S-(+)-Abscisic acid dose (mg) to extend 2 days of shelf life: log-linear regression
Excerpt: Efficacy of the preferred composition of the present invention was also studied with Pansy plants to compare its shelf life extension effect against 10% potassium salt of S-(+)-Abscisic acid solution (ABA salt) and technical grade active ingredient of the free acid (S-(+)-Abscisic acid).
Pansy plants were obtained from local retailers as mature plants. Pansy plants were then transplanted into an 18-cell flat filled with Promix BX (available from Premier Horticulture Inc. Quakertown, Pa.) and grown for 3 days prior to treatment.
Uniform plants were selected for the study. Prior to S-(+)-Abscisic acid treatment, plants were saturated with water and then drained for about two hours. A total of 20 mL S-(+)-Abscisic acid solution, which is equivalent to about 10% of the cell volume, was applied to each plant by soil drench/foliar spray application. In the ornamental industry, this method of chemical application is commonly known as a sprench application. In this study, 17 mL solution was drench applied to root zone and 3 mL solution was foliar applied to canopy. Plants were not watered following the S-(+)-Abscisic acid treatment.
After the S-(+)-Abscisic acid treatment, plants were arranged in a randomized complete block experimental design. The plants were rated daily for the extent of wilting on a scale from 1 for no wilting to 4 for complete wilting. A rating of 2.5 was the point at which a plant was determined to be unmarketable and the previous day was recorded as the shelf life of that plant in days. The log-linear regression between S-(+)-Abscisic acid doses and the extension of shelf life over control plants was used for calculation of S-(+)-Abscisic acid dose to extend 1 day or 2 days of shelf life.

[1] = test system: Tomato (variety: Rutgers) plants; assay: Tomato transpiration inhibition study (foliar application); format: in vivo; details: for Transpiration rate (% of control) Average of 3 days after treatment: foliarly applied to tomato leaves; for S-(+)-Abscisic acid doses to achieve 50% inhibition of transpiration / S-(+)-Abscisic acid dose to achieve 50% inhibition of transpiration: foliar, first 3 days after treatment; for S-(+)-Abscisic acid dose to achieve 50% inhibition of transpiration: log-linear regression; for Relative potency: transpiration inhibition
Excerpt: Efficacy of the preferred composition of the present invention was studied with tomato plants to compare its transpiration inhibition effect against 10% potassium salt of S-(+)-Abscisic acid solution (ABA salt) and technical grade active ingredient of the free acid (S-(+)-Abscisic acid). Tomato (variety: Rutgers) seeds were sown in an 18-cell flat filled with Promix PGX (available from Premier Horticulture Inc. Quakertown, Pa.) for four weeks for germination and initial growth. Plants were then transplanted into pots (18 cm in diameter and 18 cm in height) filled with Promix BX (available from Premier Horticulture Inc. Quakertown, Pa.) and grown for another 5 days before treatment. During growing periods, plants received daily irrigation and weekly fertilizer (1 g/L all purpose fertilizer 20-20-20, The Scotts Company, Marysville, Ohio). S-(+)-Abscisic acid solutions of different, formulations were foliar applied to tomato plant leaves at the rate of 24 mL/6 plants. Plants were then placed in a transparent chamber with humidity controlled at relative humidity 40 to 60%. Leaf transpiration rate was measured 1, 2, 3 or 4 and 7 days after treatment using an AP4 Leaf Porometer (Dynamax, Inc., Houston, Tex.). The transpiration rate of each treatment was calculated as the percentage of that of control at each day to reduce day-to-day variation caused by changes of environmental condition such as light intensity and temperature. The log-linear regression between S-(+)-Abscisic acid doses and the average transpiration rates of first 3 days after treatment was used for calculation of S-(+)-Abscisic acid dose to achieve 50% inhibition of transpiration.

[2] = cited from earlier work
canola seed = assay: Canola emergence after seed treatment (S-ABA as ammonium salt solution, 6-benzyladenine technical powder); format: in vivo; details: for Final emergence (%) / Qrange / T50: 6-BA 0 g/cwt
Procedure: In this example, the effect of the cytokinin 6-benzyladenine on S-(+)-Abscisic acid induced germination delay on Canola was studied. The experiment was set up as an S-(+)-Abscisic acid-dose×BA-dose factorial experiment, with four doses of S-(+)-Abscisic acid (0, 25, 50, and 100 g/cwt) and four doses of 6-benzyladenine (0, 1, 5 and 25 g/cwt) for a total of 16 treatment combinations. The treatments were made up in 1 ml samples of experimental aqueous seed treatment slurry. S-(+)-Abscisic acid was added in the form of a water solution of the ammonium salt. 6-Benzyladenine was added as technical powder. Ten μl Tween® 20 were added to each sample to help wet and suspend the 6-benzyladenine powder. All of the seed treatment slurry samples contained CP-Clear film-forming agent and Color Coat Red (available from Becker Underwood), each at 1 oz/cwt, and 0.167 oz/cwt Maxim XL fungicide (available from Syngenta). The slurry application volume was 40 oz/cwt (cwt means per 100 lbs or 45.4 kgs of seed). Ten gram samples of canola seed were treated with the experimental slurries using a Hege 11 seed treater with a six-inch bowl.
The seed was planted in plastic boxes containing 1 kg of typical agricultural slit loam. One hundred seeds were planted 2 cm deep in each plastic box, and the soil in the box was adjusted to 21% soil moisture (wet-weight basis). Two replications of the experiment were incubated under constant light in a 10° C. chamber. The soil temperature averaged 12.6° C. The boxes were watered up to the correct weight every 1-2 days, and checked for emergence. Counts of seedlings were continued until it became clear that emergence had ceased (28 days). The final count of emerged seedlings was expressed as a percentage of the 100 seeds planted.
The daily counts were converted to proportions of the final emergence of the box, and a Gompertz curve was fitted to the data from each box using SAS Proc NLIN. From the parameters of the model, median emergence time (T50) and quartile range (Qrange) were estimated for each box. Analysis of variance was performed and means calculated for each of the three responses (Final emergence, T50, Qrange).

[3] = relative to S-(+)-Abscisic acid salt = 1
[4] = relative to S-(+)-Abscisic acid = 1

Which “Days of extended shelf life” value (Pansy plants; ABA dose 1 mg) does the source give for `CC1=CC(=O)CC(C)(C)[C@@]1(O)/C=C/C(C)=C\C(=O)[O-].[K+]` [S-(+)-Abscisic acid salt] here?
Its value is 0.50 days.

What about the “Days of extended shelf life” value (Pansy plants; ABA dose 3 mg) of the same compound?
Its value is 1.17 days.

What about the “Days of extended shelf life” value (Pansy plants; ABA dose 10 mg) of the same compound?
The value was 1.50 days.

And the “Days of extended shelf life” value (Pansy plants; ABA dose 30 mg)?
The value was 1.83 days.

What about the “S-(+)-Abscisic acid dose to extend 1 day shelf life” value (Pansy plants) of the same compound?
The value was 2.83 mg/plant.

And the “S-(+)-Abscisic acid dose (mg) to extend 1 day of shelf life” value (Pansy plants)?
Its value is 2.83 mg.

And the “S-(+)-Abscisic acid dose (mg) to extend 2 days of shelf life” value (Pansy plants)?
The value was 39.83 mg.

And the “Relative potency (1 day)” value (Pansy plants; [3])?
Its value is 1.

And the “Relative potency (2 days)” value (Pansy plants; [3])?
Its value is 1.

And the “Transpiration rate (% of control) Average of 3 days after treatment” value ([1]; ABA dose 1 mg)?
Its value is 70 % of control.

And the “Transpiration rate (% of control) Average of 3 days after treatment” value ([1]; ABA dose 3 mg)?
The value was 60 % of control.

And the “Transpiration rate (% of control) Average of 3 days after treatment” value ([1]; ABA dose 10 mg)?
The value was 50 % of control.

What about the “S-(+)-Abscisic acid doses to achieve 50% inhibition of transpiration” value [1] of the same compound?
Its value is 10.13 mg/plant.

What about the “S-(+)-Abscisic acid dose to achieve 50% inhibition of transpiration” value [1] of the same compound?
Its value is 10.13 mg.

What about the Relative potency [1, 3] of the same compound?
Its Relative potency is 1.

Which “Days of extended shelf life” value (Pansy plants; ABA dose 1 mg) does the source give for `CC1=CC(=O)CC(C)(C)[C@@]1(O)/C=C/C(C)=C\C(=O)O` [S-(+)-Abscisic acid] here?
Its value is 0 days.

And the “Days of extended shelf life” value (Pansy plants; ABA dose 3 mg)?
Its value is 0.67 days.

And the “Days of extended shelf life” value (Pansy plants; ABA dose 10 mg)?
The value was 0.83 days.

What about the “Days of extended shelf life” value (Pansy plants; ABA dose 30 mg) of the same compound?
Its value is 1.67 days.

What about the “S-(+)-Abscisic acid dose to extend 1 day shelf life” value (Pansy plants) of the same compound?
The value was 8.68 mg/plant.

And the “S-(+)-Abscisic acid dose (mg) to extend 1 day of shelf life” value (Pansy plants)?
Its value is 8.68 mg.

What about the “S-(+)-Abscisic acid dose (mg) to extend 2 days of shelf life” value (Pansy plants) of the same compound?
Its value is 79.62 mg.

What about the “Relative potency (2 days)” value (Pansy plants; [4]) of the same compound?
Its value is 1.

And the “highest concentration that can be achieved in pure water” value ([2]; pure water at room temperature)?
The value was “about 3000 ppm”.

What about the “solubility limit in the tank-mix” value ([2]; tank-mix) of the same compound?
Its value is “up to 3000 ppm”.

And the “final emergence in words” value (canola seed; S-(+)-Abscisic acid dose of 100 g/cwt)?
The value was “roughly cut in half”.

And the “Final emergence (%)” value (canola seed; S-ABA 25 g/cwt)?
Its value is 92.3%.

And the “Qrange” value (canola seed; S-ABA 25 g/cwt)?
The value was 3.26 days.

What about the “T50” value (canola seed; S-ABA 25 g/cwt) of the same compound?
The value was 9.15 days.

And the “Final emergence (%)” value (canola seed; S-ABA 50 g/cwt)?
Its value is 68.9%.

What about the “Qrange” value (canola seed; S-ABA 50 g/cwt) of the same compound?
The value was 4.27 days.

What about the “T50” value (canola seed; S-ABA 50 g/cwt) of the same compound?
Its value is 11.20 days.

What about the “Final emergence (%)” value (canola seed; S-ABA 100 g/cwt) of the same compound?
Its value is 53.5%.

And the “Qrange” value (canola seed; S-ABA 100 g/cwt)?
The value was 4.27 days.

And the “T50” value (canola seed; S-ABA 100 g/cwt)?
Its value is 12.74 days.

What about the “Transpiration rate (% of control) Average of 3 days after treatment” value ([1]; ABA dose 1 mg) of the same compound?
Its value is 73 % of control.

What about the “Transpiration rate (% of control) Average of 3 days after treatment” value ([1]; ABA dose 3 mg) of the same compound?
Its value is 63 % of control.

What about the “Transpiration rate (% of control) Average of 3 days after treatment” value ([1]; ABA dose 10 mg) of the same compound?
Its value is 54 % of control.

And the “S-(+)-Abscisic acid doses to achieve 50% inhibition of transpiration” value [1]?
The value was 15.02 mg/plant.

What about the “S-(+)-Abscisic acid dose to achieve 50% inhibition of transpiration” value [1] of the same compound?
The value was 15.02 mg.

What about the Relative potency [1, 4] of the same compound?
Its Relative potency is 1.
